What is called IC50 is the concentration needed to halve the response being measured.

Molecules are shown by their SMILES. Where a name gives a salt, the structure may show the parent alone.

In US10005767B2, “Compositions and methods for inhibition of the JAK pathway” (Rigel Pharmaceuticals, Inc., priority 2009, dated 2018) one finds IC50 data, which are given here for 31 molecules.

The first experiment has as its system human primary T-cells, IL-2 stimulated proliferation (JAK-1 and JAK-3 dependent; reported as JAK3 activity). Kind of experiment: Human primary T-cell proliferation stimulated by IL-2 (Example 3). In kind it is cell-based. The following applies: Homo sapiens, T-cell, tested under conditions described in Example 3 (IL-2 stimulated human primary T-cell proliferation); read-out: ability to inhibit JAK3 activity, IC50 range (Table V). In outline: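 Peripheral-blood human T-cells pre-activated via TCR/CD28, IL-2-starved overnight, then cultured 72 h at 37 °C with compound in Yssel's medium containing IL-2 (80 U/mL in cell suspension). Proliferation read as viable-cell ATP by CellTiter-Glo luminescence; reduction versus control taken as JAK pathway inhibition.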
Turning to `Cc1cnc(Nc2ccc(-c3cccnc3)c(F)c2)nc1Nc1ccc2oc(=O)[nH]c2c1` [Compound I-505, 5-(2-(3-fluoro-4-(pyridin-3-yl)phenylamino)-5-methylpyrimidin-4-ylamino)benzo[d]oxazol-2(3H)-one trifluoroacetic acid salt], the IC50 is above 10000 nM. `C=C1C[C@@H](O)CN1c1ccc(Nc2ncc(C)c(Nc3ccc4oc(=O)[nH]c4c3)n2)cn1` [II-126, N2-[2-(4R-hydroxy-2-methylidene-pyrrolidin-1-yl)pyridin-5-yl]-5-methyl-N4-(2-oxo-2,3-dihydro-1,3-benzoxazol-5-yl)-2,4-pyrimidinediamine]: the IC50 is 500 to 5000 nM. In the case of `Cc1cnc(Nc2ccc(C(F)(F)F)c(Cl)c2)nc1Nc1ccc2oc(=O)[nH]c2c1` [Compound I-167, 5-[2-(3-Chloro-4-trifluoromethyl-phenylamino)-5-methyl-pyrimidin-4-ylamino]-3H-benzooxazol-2-one], the IC50 was below 500 nM. For the molecule `COc1cc(Nc2ncc(C)c(Nc3ccc4oc(=O)[nH]c4c3)n2)cc(C)c1C` [Compound I-535, 5-(2-(3-methoxy-4,5-dimethylphenylamino)-5-methylpyrimidin-4-ylamino)benzo[d]oxazol-2(3H)-one], the IC50 was below 500 nM. In the case of `Cc1cnc(Nc2ccc3c(c2)NC(=O)CCC3)nc1Nc1ccc2oc(=O)[nH]c2c1` [IV-23, 5-(5-methyl-2-(2-oxo-2,3,4,5-tetrahydro-1H-benzo[b]azepin-8-ylamino)pyrimidin-4-ylamino)benzo[d]oxazol-2(3H)-one], the IC50 is below 500 nM. For the molecule `Cc1cnc(Nc2ccc(N3CCNCC3)nc2)nc1Nc1ccc2oc(=O)[nH]c2c1` [II-10, N4-(benzo[d]oxazol-2(3H)-on-5-yl)-N2-(6-(piperazin-1-yl)pyridin-3-yl)-5-methylpyrimidine-2,4-diamine], the IC50 is below 500 nM. Regarding `Cc1cnc(Nc2ccc3oc(=O)[nH]c3c2)nc1Nc1ccc2oc(=O)[nH]c2c1` [IV-22, 5,5′-(5-methylpyrimidine-2,4-diyl)bis(azanediyl)dibenzo[d]oxazol-2(3H)-one], the IC50 is below 500 nM. Still for that read-out and setting: the figure for `Cc1cnc(Nc2ccc(N3CCN(C(=O)OC(C)(C)C)C(C)C3)nc2)nc1Nc1ccc2oc(=O)[nH]c2c1` (stereo not shown) [II-11, N4-(benzo[d]oxazol-2(3H)-on-5-yl)-N2-(6-(3-methyl-4-tert-butoxycarbonylpiperazin-1-yl)pyridin-3-yl)-5-methylpyrimidine-2,4-diamine] is below 500 nM. Regarding `Cc1cnc(Nc2ccc3c(c2)CN(C(=O)C(C)(C)C)C3)nc1N(C(=O)C(C)(C)C)c1ccc2oc(=O)n(C(=O)C(C)(C)C)c2c1` [III-13, N-{2-[2-(2,2-Dimethyl-propionyl)-2,3-dihydro-1H-isoindol-5-ylamino]-5-methyl-pyrimidin-4-yl}-N-[3-(2,2-dimethyl-propionyl)-2-oxo-2,3-dihydro-benzooxazol-5-yl]-2,2-dimethyl-propionamide], the IC50 is below 500 nM. For the molecule `Cc1cnc(Nc2ccc(C(N)=O)cc2)nc1Nc1ccc2oc(=O)n(COP(=O)(O)O)c2c1` [Compound I-147, (5-(2-(4-carbamoylphenylamino)-5-methylpyrimidin-4-ylamino)-2-oxobenzo[d]oxazol-3(2H)-yl)methyl dihydrogen phosphate], the IC50 is below 500 nM. Same read-out and setting: the figure for `Cc1cnc(Nc2ccc(N3CCNC(C)C3)nc2)nc1Nc1ccc2oc(=O)[nH]c2c1` (stereo not shown) [II-12, N4-(benzo[d]oxazol-2(3H)-on-5-yl)-N2-(6-(3-methylpiperazin-1-yl)pyridin-3-yl)-5-methylpyrimidine-2,4-diamine] is below 500 nM. Consider `CSc1ccc(Nc2ncc(C)c(Nc3ccc4oc(=O)[nH]c4c3)n2)cc1C(F)(F)F` [Compound I-155, 5-[5-Methyl-2-(4-methylsulfanyl-3-trifluoromethyl-phenylamino)-pyrimidin-4-ylamino]-3H-benzooxazol-2-one], for which the IC50 was below 500 nM. Consider `COc1cc(C)cc(Nc2ncc(C)c(Nc3cc(F)c4oc(=O)[nH]c4c3)n2)c1` [Compound I-430, 7-fluoro-5-(2-(3-methoxy-5-methylphenylamino)-5-methylpyrimidin-4-ylamino)benzo[d]oxazol-2(3H)-one], for which the IC50 is below 500 nM. `CC(=O)c1cc(Nc2ncc(C)c(Nc3ccc4oc(=O)[nH]c4c3)n2)cc(C(F)(F)F)c1` [Compound I-445, 5-(2-(3-acetyl-5-(trifluoromethyl)phenylamino)-5-methylpyrimidin-4-ylamino)benzo[d]oxazol-2(3H)-one]: the IC50 is below 500 nM.

`Cc1cnc(Nc2ccc(C(N)=O)cc2)nc1Nc1ccc2oc(=O)[nH]c2c1` [Compound I-3, N4-(benzo[d]oxazol-2(3H)-on-5-yl)-N2-(4-aminocarbonylphenyl)-5-methylpyrimidine-2,4-diamine]: the half-inhibitory concentration (IC50) was below 500 nM. Regarding `Cc1ccc(C)c(Nc2ncc(C)c(Nc3ccc4oc(=O)[nH]c4c3)n2)c1` [Compound I-501, 5-(2-(2,5-dimethylphenylamino)-5-methylpyrimidin-4-ylamino)benzo[d]oxazol-2(3H)-one], the IC50 was 500 to 5000 nM. For the molecule `Cc1cnc(Nc2ccc3c(c2)CN(S(C)(=O)=O)C3)nc1Nc1ccc2oc(=O)[nH]c2c1` [III-14, 5-[2-(2-Methanesulfonyl-2,3-dihydro-1H-isoindol-5-ylamino)-5-methyl-pyrimidin-4-ylamino]-3H-benzooxazol-2-one], the IC50 is below 500 nM. In the case of `Cc1cnc(Nc2ccc(OC(F)(F)F)c(N3CCOCC3)c2)nc1Nc1ccc2oc(=O)[nH]c2c1` [Compound I-124, N4-(benzo[d]oxazolin-2(3H)-one-5-yl)-5-methyl-N2-[3-(morpholin-4-yl)-4-trifluoromethoxyphenyl]-2,4-pyrimidinediamine], the IC50 was below 500 nM.

The experiment is the same for the next values; noted with them: tested under conditions described in Example 3 (IL-2 stimulated human primary T-cell proliferation); read-out: ability to inhibit JAK3 activity, IC50 range (Table V).
With `Cc1cnc(Nc2ccc(N3CCN(C)CC3)nc2)nc1Nc1ccc2[nH]c(=O)[nH]c2c1` [II-15, N4-(benzimidazolin-2-on-5-yl)-N2-[2-(4-methylpiperazin-1-yl)pyridin-5-yl]-5-methylpyrimidine-2,4-diamine], the IC50 was below 500 nM. Turning to `Cn1c(=O)oc2ccc(Nc3nc(Nc4cccc(S(N)(=O)=O)c4)ncc3F)cc21` [Compound I-75, N2-((3-aminosulfonyl)phenyl)-N4-(3-methyl-2-oxo-2,3-dihydrobenzo[d]oxazol-5-yl)-5-fluoropyrimidine-2,4-diamine], the IC50 is below 500 nM. In the case of `Cc1cnc(Nc2cc(OC(C)C)cc(C(F)(F)F)c2)nc1Nc1ccc2oc(=O)[nH]c2c1` [Compound I-372, N2-(3-isopropoxy-5-trifluoromethyl)phenyl-5-methyl-N4-(2-oxo-2,3-dihydro-1,3-benzoxazol-5-yl)-2,4-pyrimidinediamine], the IC50 was below 500 nM. Take `CS(=O)(=O)c1ccc(Nc2ncc(F)c(Nc3ccc4oc(=O)[nH]c4c3)n2)cc1` [Compound I-21]: the IC50 is below 500 nM.

Turning to `Cn1c(=O)oc2ccc(Nc3nc(Nc4cccc(S(C)(=O)=O)c4)ncc3F)cc21` [Compound I-77, N2-((3-methylsulfonyl)phenyl)-N4-(3-methyl-2-oxo-2,3-dihydrobenzo[d]oxazol-5-yl)-5-fluoropyrimidine-2,4-diamine], the IC50 was in the range of 500 to 5000 nM. Consider `Cc1ccc(Nc2ncc(C)c(Nc3ccc4oc(=O)[nH]c4c3)n2)cc1OC(C)(C)C(N)=O` [Compound I-392, N2-[3-(1-aminocarbonyl-1-methyl)ethoxy-4-methyl]phenyl-5-methyl-N4-(2-oxo-2,3-dihydro-1,3-benzoxazol-5-yl)-2,4-pyrimidinediamine], for which the IC50 is below 500 nM.

On to `COc1cc(F)cc(Nc2ncc(C)c(Nc3ccc4oc(=O)[nH]c4c3)n2)c1` [Compound I-352, N2-(3-fluoro-5-methoxy)phenyl-5-methyl-N4-(2-oxo-2,3-dihydro-1,3-benzoxazol-5-yl)-2,4-pyrimidinediamine], for which the IC50 was below 500 nM. In the case of `Cc1cnc(Nc2cc(F)cc(C(F)(F)F)c2)nc1Nc1ccc2oc(=O)[nH]c2c1` [Compound I-360, N2-(3-fluoro-5-trifluoromethyl)phenyl-5-methyl-N4-(2-oxo-2,3-dihydro-1,3-benzoxazol-5-yl)-2,4-pyrimidinediamine], the half-maximal inhibitory concentration (IC50) was below 500 nM. Same read-out and setting: the same measure for `Cc1cnc(Nc2ccc(S(C)(=O)=O)cc2)nc1Nc1ccc2[nH]c(=O)oc2c1` [Compound I-101, N2-((4-methylsulfonyl)phenyl)-N4-(2-oxo-2,3-dihydrobenzo[d]oxazol-6-yl)-5-methylpyrimidine-2,4-diamine]: below 500 nM. Turning to `Cc1cnc(Nc2cccc(OCC(=O)N(C)C)c2)nc1Nc1ccc2oc(=O)[nH]c2c1` [Compound I-326, N2-(3-dimethylaminocarbonylmethoxy)phenyl-5-methyl-N4-(2-oxo-2,3-dihydro-1,3-benzoxazol-5-yl)-2,4-pyrimidinediamine], the IC50 is below 500 nM. For the molecule `Cc1cnc(Nc2ccc(N(C)S(C)(=O)=O)cc2)nc1Nc1ccc2oc(=O)n(C)c2c1` [Compound I-94, N2-((4-methylsulfonyl-N-methylamino)phenyl)-N4-(3-methyl-2-oxo-2,3-dihydrobenzo[d]oxazol-5-yl)-5-methylpyrimidine-2,4-diamine], the IC50 is below 500 nM. Turning to `Cc1cnc(Nc2ccc(OCCO)nc2)nc1Nc1ccc2oc(=O)[nH]c2c1` [II-142, N2-[2-(2-hydroxy)ethoxypyridin-5-yl]-5-methyl-N4-(2-oxo-2,3-dihydro-1,3-benzoxazol-5-yl)-2,4-pyrimidinediamine], the IC50 was below 500 nM. On to `Cc1cnc(Nc2ccc(N3CCOCC3)cc2)nc1Nc1ccc2oc(=O)[nH]c2c1` [Compound I-338, 5-methyl-N2-(4-morpholino)phenyl-N4-(2-oxo-2,3-dihydro-1,3-benzoxazol-5-yl)-2,4-pyrimidinediamine], for which the IC50 was below 500 nM.
